Tests used:
[1] = tested on: 4mm punch wound in Balb/c mice; experiment: Topical applications on 4 mm punch wounds, visual contraction of wounds (Example 5); format: in vivo, mouse; conditions: for Relative efficacy (wound contraction): topical agent on wound, uracil 100 μM, two weeks
Protocol: Balb/c mice were divided into three dietary groups (F=normal mouse chow; NF=nucleotide free mouse chow; and NFR=nucleotide free mouse chow supplemented with yeast RNA). Each group was fed before initiation of wounds. After 4 weeks of feeding, a 4mm punch wound was created on the dorsal surface of each mouse, using a 4mm biopsy punch. The wounds were coated with four different topical agents: 1) saline; 2) uracil {100 μM concentration); 3) saline+CCM; and 4) Uracil+CCM (CCM=crosslinked collagen mesh). CCM is ‘Collagen Permeable Membrane’ from Accurate Chemical & Scientific Corporation, catalog no. YIC 152299. Four mm size circles were soaked with appropriate nucleotide or saline solution (4mm punch wounds) and used to dress the wounds.
Twelve groups were formed from these combinations (n=3). Mice were continued on their respective diets. Wounds were observed visually and photographed at four different times during the experimental period of two weeks.
A record was made of the progressive contraction of the wounds and area among the various dietary and treatment groups.

[2] = tested on: wound cylinder of PTFE in Balb/C mice; experiment: Wound hydroxyproline content in PTFE wound cylinder, adenine/uracil/RNA diets (Example 2, FIG. 1); format: in vivo, mouse; conditions: for amount of OHP/cm PTFE over both the nucleotide free and the non-supplemented diets: diet at least 30 days before implantation, tenth post-operative day
From the text: Twenty-five Balb/C mice were divided into five test groups (n=5) and housed in groups in the animal care facilities. Each group received one of the following diets ad libertum: F—normal mouse chow, NF—nucleotide free diet, NFR—yeast RNA supplemented diet, NFA—adenine supplemented diet, and NFU—uracil supplemented diet. All groups received these diets for at least 30 days prior to wound cylinder implantation. All animals received water ad libitum.
Polytetrafluorethylene (PTFE, Impra Vascular Graft, 3 mm lumen, […]) wound cylinders (1.5 cm long) were placed subcutaneously in the dorsal midline of each animal under general anesthesia (Methoxyflurane, inhalation). All animals were continued on their test diets. On the tenth post-operative day, all animals were euthanized by cervical dislocation and the would cylinders were removed for analysis.
Wound cylinders were analyzed for hydroxyproline (OHP) content using the method of Woessner. Briefly, approximately 1 cm segments of the wound cylinders were hydrolyzed in 0.5 ml 6 N HCl for 3 hours at 130 C. Samples were cooled and 0.5 ml aliquots were neutralized with the appropriate volume of 1 N NaOH. Each sample was diluted to 5.25 ml with H2O in order to reduce the total NaCl concentration to below 0.4 M. Each sample was then reacted as described by Woessner.

| Structure (SMILES) | results compared with uracil as topical agent ([1]; 100 μM as topical agent in place of uracil) | amount of OHP/cm PTFE over both the nucleotide free and the non-supplemented diets [2] | Relative efficacy (wound contraction) ([1]; Diet F (normal mouse chow)) | Relative efficacy (wound contraction) ([1]; Diet NF (nucleotide free chow)) | Relative efficacy (wound contraction) ([1]; Diet NFR (yeast RNA supplemented)) | fold increase of the amount of OHP in the wound [2] | significance of OHP increase over the non-supplemented diet [2] | significance of OHP increase over the nucleotide free diet [2] |
| --- | --- | --- | --- | --- | --- | --- | --- | --- |
| OC[C@H]1O[C@@H](n2cnc3c(O)ncnc32)[C@H](O)[C@@H]1O [inosine] | no significant differences |  |  |  |  |  |  |  |
| O=c1cc[nH]c(=O)[nH]1 [uracil] |  | increased | moderate | minimal | moderate |  |  |  |
| Nc1ncnc2nc[nH]c12 [Adenine, adenine] |  | increased |  |  |  | close to two times | statistically significant | significant |
